# Values joined by “and” are separate entries in the source; they are usually repeats but may differ in a detail not shown here. Identical values can stand only once.
# Key:
# Assay type in all cases: cell-based, human
# MDA-MB-468 cells = test: Cell death by trypan blue exclusion
# Procedure: Trypan blue exclusion and propidium iodide staining were used to quantify general cell death and the presence of apoptotic cell death was confirmed by immunoblot. The percentage of dead cells in a given population was determined by quantifying the number of trypan blue positive (dead) cells and dividing by the total number of trypan blue positive and negative cells.
# [1] = tested on: T-47D breast adenocarcinoma cells; test: Cell size by flow cytometry (mean FSC-H, G1 phase); settings: 10 μM
# Procedure: FIG. 31A is a differential interference contrast (DIC) image of MDA-MB-468 breast adenocarcinoma cells treated for ˜20 hours with DMSO (drug vehicle control), 10 μM IPAG (antagonist) or 10 μM PRE084 (agonist). A twenty-micron bar is shown in each image. Data are presented as mean±SEM. FIG. 31B is a graph illustrating the finding that IPAG diminished the mean cell size (FSC-H) of MDA-MB-468 breast tumor cells in a time-responsive manner. The mean FSC-H of 370±5 at to decreased to 323±4 after 24 hours of IPAG treatment and to 267±2 after 48 hours of treatment. Two-tailed t-tests were performed to determine statistical significance. For IPAG treatment compared to control (DMSO) and Sigma agonists (SKF and PRE084), P=0.0002 at d1 and P=0.00013 at d2. Data were generated from three to five independent determinations for each time-point. Flow cytometry was used to measure mean cell size (mean FSC-H) of T-47D breast adenocarcinoma cells. FIG. 31C is a bar graph illustrating T-47D cells treated for 24 hours with 10 μM indicated Sigma ligand. IPAG and BD 1047 (Sigma1 antagonists) diminished cell size from a mean FSC-H of 412±5 for control (DMSO) cells versus 341±7 and 381±8 for IPAG and BD1047 treated cells, respectively. […] Data represent 5 independent determinations (*P<0.05, ***P<0.001). FIG. 31D is a bar graph illustrating how IPAG (antagonist) decreases cell size in a dose responsive manner. T-47D were treated for 24 h with 1 and 10 μM IPAG, and mean FSC-H was measured. FIG. 31E is a graph illustrating that T47D cell size decreases over time. T-47D cells were treated for a total of 48 hours with 10 μM of the indicated Sigma ligands. […] Neither Sigma1 agonist, (+)-SKF10047 and PRE084, altered cell size. […] Two-tailed t-tests were performed to determine statistical significance. For IPAG treatment compared to control (DMSO) and Sigma1 agonists (SKF and PRE084), P=0.0002 at d1 and P<0.0001 at d2. For FIGS. 31B-31E, the mean FSC-H was determined for each cell cycle population (i.e., G1, S, G2/M), and data is shown for G1 phase cells. S and G2/M phase cells responded similarly (data not shown).
# [2] = tested on: T47D and MDA-MB-468 cells; test: Cell cycle profile (G1, S, G2 phase cells); settings: 24 hours; IPAG 1 μM (T47D) or 10 μM (MDA-MB-468); (+)-SKF-10047 10 μM
# Procedure: FIG. 30, comprising FIGS. 30A-30B, illustrates that Sigma1 antagonists mediate cell cycle arrest. […] FIG. 30A is a graph illustrating the percentage of G1, S, and G2 phase cells in T47D cells treated for 24 hours with DMSO (vehicle control), 1 μM IPAG (Sigma1 antagonist), or 10 μM (+)SKF-10047 (Sigma1 agonist). FIG. 30 B is a graph illustrating the percentage of G1, S, and G2 phase cells in MDA-MB-468 cells treated for 24 hours with DMSO (vehicle control), 10 μM IPAG (Sigma1 antagonist), or 10 μM (+)-SKF-10047 (Sigma1 agonist).
# [3] = tested on: MCF-7, T47D, DU145, PC3, HepG2 and Panc1 cells; test: LC3BII immunoblot in a range of tumor cell lines; settings: 10 μM, 24 hours
# Procedure: FIG. 36, comprising FIGS. 36A-36C, illustrates Sigma1 antagonist associated autophagy. FIG. 36A, comprises representative images of translocation of GFP-tagged LC3 (LC3-GFP) into autophagosomes in MDA-MB-468 (MDA468) breast adenocarcinoma cells. Only antagonist-treated MDA-MB-468 cells presented LC3-GFP translocation to autophagosomes: […]. […] The images are representative of at least 80 fields for each treatment condition. FIG. 36B is an image of an immunoblot illustrating the finding that formation of GFP-LC3II the formation of GFP-LC3 positive punctae, an indicator of autophagosome formation. Protein extracts from MDA-MB-468 cells stably transfected with and expressing GFP-LC3, treated for 24 hours with 10 μM of the indicated Sigma1 ligand. FIG. 36C comprises images of immunoblots illustrating that increased levels of the microtubule associated protein light chain 3BII isoform (LC3BII) is another broadly used indicator of activated autophagy. […] Legend: MCF-7 (breast adenocarcinoma), T47D (breast adenocarcinoma), DU145 (prostate adenocarcinoma), PC3 (prostate adenocarcinoma), HepG2 (hepatocellular carcinoma), and Panc1 (pancreatic adenocarcinoma).
# PC3 and DU145 PCa cells = test: UPR induction in prostate cancer cell lines; settings: preliminary experiments
# Text: FIG. 15 is an image of an immunoblot illustrating induction of UPR in a prostate cancer cell line. […] P-IRE1α indicates phosphorylated IRE1α. Similar results were obtained with DU145 prostate cancer cells.
# This might be due to an accumulation of ubiquitylated proteins or due to an increase in ubiquitin ligase activity. Progression of the ER stress response could be monitored by a set of markers, many of which have been directly linked to the UPR. The most extensively investigated sensors that initiate the UPR are IRE1α, PERK, and ATF6, which transduce signals to a cascade of effectors. Many of these UPR 4 effectors function as transcription factors that induce the synthesis of ER chaperones, such as GRP78/BiP and GRP94, involved in maintaining protein homeostasis.
structure (smiles),measurement,setting,value
"N=C(Nc1ccc(I)cc1)NC1C2CC3CC(C2)CC1C3 (stereo not drawn) [IPAG, 1-(4-iodophenyl)-3-(2-adamantyl)guanidine]",dead cells per well,"MDA-MB-468 cells; 10 μM, 24 hours, with 3-MA (5 mM) or siRNA knockdown of Beclin1",over 33%
same,proportion of dead cells (apoptotic cell death),"MDA-MB-468 cells; 10 μM, 48 hours of continuous treatment",30±2%
same,proportion of dead cells,"MDA-MB-468 cells; 24 hours, IRE1α knockdown",47±8%
same,dead cells per well,"MDA-MB-468 cells; 24 hours, combined treatment with IPAG and 3-MA",24±5%
same,proportion of dead cells,"MDA-MB-468 cells; 24 hours, control siRNA transfected cells",9±4%
same,proportion of dead cells,MDA-MB-468 cells; by 72 hours,> 75%
same,dead cells per well,MDA-MB-468 cells; knockdown of ATF4,30±9%
same,mean FSC-H (relative cell size),"[1]; 24 hours, control 412±5",341±7 and 331±3
same,mean FSC-H (relative cell size),[1]; 48 hours (d2),300±2
same,cell cycle profile,[2],accumulation of breast adenocarcinoma cells in G1 phase of the cell cycle
same,LC3BII levels,[3],salient induction of LC3BII levels
same,IRE1α and BiP levels,PC3 and DU145 PCa cells,salient induction of IRE1α and BiP levels
